The values that follow come from patent US20240115545A1, “PHARMACEUTICAL COMPOSITION CONTAINING B-LAPACHONE AS ACTIVE INGREDIENT FOR PREVENTION OR TREATMENT OF CHOLESTATIC LIVER DISEASE” (CUROME BIOSCIENCES CO., LTD., priority 2020, published 2024).

Assay [1] deals with DDC-induced cholestatic liver disease mice. Kind of assay: Blood indexes (ALT, AST, ALP, bilirubin), DDC and β-lapachone given together for 7 days (Example 3.1). Format: in vivo. How it is done:
DDC-induced cholestatic liver disease mouse animal models were prepared according to the method of Elisa Pose et al. by using 8-week-old C57BL/6 male mice (Samtako, Korea). Briefly, cholestatic liver disease was induced by feeding a standard rodent diet supplemented with 0.1% (w/w) DDC for 7 or 14 days. The 12-hour light and dark cycle was maintained and animals were allowed to free access to water. The standard rodent diet included medium wheat, wheat, corn, and corn gluten flour, and soybean oil (14% protein). All animal related procedures were reviewed and approved by the Institutional Animal Care and Use Committee of Korea Research Institute of Bioscience and Biotechnology (KRIBB), KRIBB-AEC-20165).
To investigate the effect of β-lapachone (BL) on the occurrence of cholestatic liver disease, both […] and β-lapachone were administered to mice to characterize animal models.
After 8-week-old C57BL/6 male mice (Samtako, Korea) were divided into each group (=6), the mice were fed a diet with normal (vehicle), control (DDC), DDC+β-lapachone 20 mg/kg, DDC+β-lapachone 40 mg/kg, DDC+β-lapachone 80 mg/kg, DDC+β-lapachone 100 mg/kg, and positive control DDC+ursodeoxycholic acid 100 mg/kg, and DDC+obeticholic acid 30 mg/kg (total 7 days). After 7 days of treatment, the mice were sacrificed and then the blood was collected from the heart. Thereafter, the levels of alanine aminotransferase (ALT), aspartate aminotransferase (AST), alkaline phosphatase (ALP), and bilirubin, which are blood indexes, were analyzed, and shown in FIG. 4.

Assay [2] has as its system peripheral blood mononuclear cells (PBMCs). Kind of assay: IL-1β and IL-18 expression in LPS and ATP treated peripheral blood mononuclear cells. It counts as cell-based, mice. As to conditions: LPS 200 ng/mL and ATP, 0.5, 1, 2 μM β-lapachone, 4 hours. How it is done: Considering that inflammatory cytokines mediate the pathogenic mechanism of cholestatic liver disease, the peripheral blood mononuclear cell model was used by a modified method of Boyum et al. (1968). Peripheral blood mononuclear cells isolated from healthy 8-week-old C57BL/6 male mice (Samtako, Korea) were maintained by primary culture in RPMI-1640 medium containing 10% FBS, 2 mM glutamine, 100 U penicillin, and 0.1 mg/ml streptomycin. Stable peripheral blood mononuclear cells (PBMCs) were treated with LPS at 200 ng/mL and ATP and β-lapachone at 0, 0.5, 1, 2 μM in the medium and, after 4 hours, the expression levels of IL-1β and IL-18 were investigated, and the results are shown in FIG. 15.

The subject of assay [3] is DSS-induced inflammatory bowel disease mice. Kind of assay: Colon length in DSS-induced inflammatory bowel disease mice (Example 6.2). As to conditions: DSS + β-lapachone 80 mg/kg. It counts as in vivo. The protocol: After 8-week-old C57BL/6 female mice (Samtako, Korea) were divided into each group (=10), each experimental group was fed a standard rodent diet supplemented with 3% (w/w) DSS in drinking water for the first 5 days to induce acute colitis and orally administered control (vehicle), β-lapachone 40 mg/kg, and β-lapachone 80 mg/kg for 14 days.
By the same method as in Example 6.1, experimental groups were divided into a DSS untreated group (Control), a DSS treated group, and a DSS+β-lapachone 80 mg/kg treated group, respectively, and treated. After the end of the experiment, the mice were sacrificed to remove the colon, and the accurate colon length was measured using a Vernier caliper, and is shown FIGS. 11A and 11B. In addition, the mRNA levels of genes of interleukin-1beta (IL-1β), interleukin-6 (IL-6), interleukin-18 (IL-18), interferon-γ (INF-γ), tumor necrosis factor-α (TNF-α), tumor necrosis factor-β (TNF-β), and monocyte chemoattractant protein-1 (MCP-1), which were inflammatory cytokine factors in the colon tissue, were analyzed by a real-time polymerase chain reaction through a conventional experiment procedure, and are shown in FIG. 12.

The subject of assay [4] is LX-2 hepatic stellate cell line. Description: Fibronectin and α-SMA protein expression in TGF-β1-treated LX-2 hepatic stellate cells (immunoblotting). Format: cell-based. Conditions: LX-2 cells, 1 ng/ml TGF-β1 + 0.5 or 1 μM β-lapachone, 24 hours. The protocol:
Considering that inflammation and fibrosis of bile ducts cause cirrhosis in cholestatic liver disease, experiments were performed on the LX-2 hepatic stellate cell line model by using the method of Takaaki Higashi et al. (2017). The LX-2 cell line was subcultured in DMEM containing 10% FBS, 2 mM glutamine, 100 U penicillin, and 0.1 mg/ml streptomycin. The LX-2 cell line was added into a 6-well plate at a density of 16×10^4 cells/well, and cultured in DMEM containing 1 ng/ml TGF-β1, 1 ng/ml TGF-β1+0.5 μM β-lapachone or 1 ng/ml TGF-β1+1 μM β-lapachone for 24 hours. Thereafter, the protein expression levels of the fibrosis-related genes fibronectin and α-SMA of the obtained cells were measured by protein immunoblotting according to a conventional method known in the art.
(A western blot detects proteins with antibodies after separation by electrophoresis.)

Assay [5] relates to DDC-induced cholestatic liver disease mice. Description: Treatment effect on blood bilirubin and ALP in cholestatic liver disease-induced mice (Example 4). Format: in vivo. How it is done:
The treatment effect of β-lapachone in cholestatic liver disease-induced mouse animals were investigated. After 8-week-old C57BL/6 male mice (Samtako, Korea) were divided into each group (=6), each group excluding a control group was fed a diet containing 0.1% DDC for 3 days. Thereafter, the mice were fed a diet with DDC control (vehicle), DDC+β-lapachone 20 mg/kg, DDC+β-lapachone 40 mg/kg, DDC+β-lapachone 80 mg/kg, and positive control DDC+obeticholic acid 30 mg/kg for 4 days (total 7 days). After 7 days of feeding, the mice were sacrificed and then the blood was collected from the heart.

Where [6] appears, read: 20, 40, 80, 100 mg/kg in diet with DDC, depending on the concentration.
Where [7] appears, read: 0.1% DDC 3 days, then DDC + 20, 40, 80 mg/kg in diet for 4 days, depending on the concentration.

Consider `CC1(C)CCC2=C(O1)c1ccccc1C(=O)C2=O` [β-lapachone], for which, in assay [1] (setting [6]), the “ALP in the blood increased by DDC” value was “inhibited”, the “ALT in the blood increased by DDC” value was “inhibited”, the “AST in the blood increased by DDC” value is listed as “inhibited” and the “bilirubin in the blood increased by DDC” value was “inhibited”. Moreover, in assay [1] (vs ursodeoxycholic acid 100 mg/kg and obeticholic acid 30 mg/kg), the “effect on blood indexes compared with positive controls” value was “excellent effects compared with ursodeoxycholic acid (UDCA) and obeticholic acid (OCA)”. For the same compound, in assay [2], the “expression level of IL-1β increased by LPS and ATP” value is “reduced depending on the concentration”; the “expression level of IL-18 increased by LPS and ATP” value is recorded as “reduced depending on the concentration”. The “colon length shortened by DSS” value in assay [3] is on record as “recovered”. Moreover, in assay [4], the “protein expression level of fibronectin increased by TGF-β1” value is reported as “reduced depending on the concentration” and the “protein expression level of α-SMA increased by TGF-β1” value is “reduced depending on the concentration”. Moreover, in assay [5] (setting [7]), the “ALP in the blood increased by DDC” value is on record as “inhibited” and the “bilirubin in the blood increased by DDC” value is listed as “inhibited”. Further, the “effect on bilirubin and ALP compared with positive controls” value in assay [5] (treatment after 3 days DDC, positive control obeticholic acid 30 mg/kg) was “excellent effect compared with ursodeoxycholic acid (UDCA) and obeticholic acid (OCA)”.
